Experimental data as given in the supplement of paper PMC10307832.

What was measured:
Test in all cases: relative viability (nuclei count vs DMSO), 5 days (fraction); higher = more cells survive
NCI-H1793 = tested on: NCI-H1793
Method in brief: (§1)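 Dosing by pin tool came one day after lung cancer cell lines were seeded in 1536-well plates, using either one drug or a fixed anchor-drug dose plus five library-drug doses (not always all listed) in √10 steps. After 5 days, nuclei were counted on 4× images. Relative viability is treated-well nuclei count divided by vehicle-well nuclei count, and values are medians of duplicate plates.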

NCI-H1395 = tested on: NCI-H1395
Method in brief: as §1

NCI-H2085 = tested on: NCI-H2085
Method in brief: as §1

NCI-H2023 = tested on: NCI-H2023
Method in brief: as §1

H3255 = tested on: H3255
Method in brief: as §1

EPLC-272H = tested on: EPLC-272H
Method in brief: as §1

NCI-H650 = tested on: NCI-H650
Method in brief: as §1

NCI-H1651 = tested on: NCI-H1651
Method in brief: as §1

LU99A = tested on: LU99A
Method in brief: as §1

NCI-H2087 = tested on: NCI-H2087
Method in brief: as §1

LCLC-103H = tested on: LCLC-103H
Method in brief: as §1

NCI-H1944 = tested on: NCI-H1944
Method in brief: as §1

SK-MES-1 = tested on: SK-MES-1
Method in brief: as §1

HCC-44 = tested on: HCC-44
Method in brief: as §1

NCI-H2405 = tested on: NCI-H2405
Method in brief: as §1

EMC-BAC-2 = tested on: EMC-BAC-2
Method in brief: as §1

NCI-H838 = tested on: NCI-H838
Method in brief: as §1

ChaGo-K-1 = tested on: ChaGo-K-1
Method in brief: as §1

NCI-H520 = tested on: NCI-H520
Method in brief: as §1

COR-L23 = tested on: COR-L23
Method in brief: as §1

HCC-827 = tested on: HCC-827
Method in brief: as §1

Work on CC(=O)O[C@@]12CO[C@@H]1C[C@H](O)[C@@]1(C)C(=O)[C@H](O)C3=C(C)[C@@H](OC(=O)[C@H](O)[C@@H](NC(=O)OC(C)(C)C)c4ccccc4)C[C@@](O)([C@@H](OC(=O)c4ccccc4)[C@H]21)C3(C)C [Docetaxel] + Nc1ncn([C@H]2C[C@H](O)[C@@H](CO)O2)c(=O)n1 [Decitabine] (partner 2 µM) yielded a relative viability (NCI-H1793; first compound 0.0002 µM) of 0.532, a relative viability (NCI-H1793; first compound 0.000632 µM) of 0.359 and a relative viability (NCI-H1793; first compound 0.002 µM) of 0.278. The relative viability (NCI-H1793; first compound 0.006325 µM) was 0.2, the relative viability (NCI-H1793; first compound 0.02 µM) was 0.18 and the relative viability (NCI-H1395; first compound 0.0002 µM) was 0.709. The relative viability (NCI-H1395; first compound 0.000632 µM) was 0.731, the relative viability (NCI-H1395; first compound 0.002 µM) was 0.635 and the relative viability (NCI-H1395; first compound 0.006325 µM) was 0.425. For the same compound, the relative viability (NCI-H1395; first compound 0.02 µM) was 0.295, the relative viability (NCI-H2085; first compound 0.0002 µM) was 0.539 and the relative viability (NCI-H2085; first compound 0.000632 µM) was 0.612. It also gave a relative viability (NCI-H2085; first compound 0.002 µM) of 0.552, a relative viability (NCI-H2085; first compound 0.006325 µM) of 0.459 and a relative viability (NCI-H2085; first compound 0.02 µM) of 0.401. It also gave a relative viability (NCI-H2023; first compound 0.0002 µM) of 0.233, a relative viability (NCI-H2023; first compound 0.000632 µM) of 0.161 and a relative viability (NCI-H2023; first compound 0.002 µM) of 0.102. The relative viability (NCI-H2023; first compound 0.006325 µM) was 0.0989, the relative viability (NCI-H2023; first compound 0.02 µM) was 0.0701 and the relative viability (H3255; first compound 0.0002 µM) was 0.734. It also gave a relative viability (H3255; first compound 0.000632 µM) of 0.566, a relative viability (H3255; first compound 0.002 µM) of 0.335 and a relative viability (H3255; first compound 0.006325 µM) of 0.31. The relative viability (H3255; first compound 0.02 µM) was 0.27, the relative viability (EPLC-272H; first compound 0.0002 µM) was 0.364 and the relative viability (EPLC-272H; first compound 0.000632 µM) was 0.308. The relative viability (EPLC-272H; first compound 0.002 µM) was 0.179, the relative viability (EPLC-272H; first compound 0.006325 µM) was 0.127 and the relative viability (EPLC-272H; first compound 0.02 µM) was 0.0741. The relative viability (NCI-H650; first compound 0.0002 µM) was 0.299, the relative viability (NCI-H650; first compound 0.000632 µM) was 0.307 and the relative viability (NCI-H650; first compound 0.002 µM) was 0.274. It also gave a relative viability (NCI-H650; first compound 0.006325 µM) of 0.278, a relative viability (NCI-H650; first compound 0.02 µM) of 0.127 and a relative viability (NCI-H1651; first compound 0.0002 µM) of 0.458. It also gave a relative viability (NCI-H1651; first compound 0.000632 µM) of 0.547, a relative viability (NCI-H1651; first compound 0.002 µM) of 0.299 and a relative viability (NCI-H1651; first compound 0.006325 µM) of 0.173. For the same compound, the relative viability (LU99A; first compound 0.0002 µM) was 0.87, the relative viability (LU99A; first compound 0.000632 µM) was 0.872 and the relative viability (LU99A; first compound 0.002 µM) was 0.466. It also gave a relative viability (LU99A; first compound 0.006325 µM) of 0.363, a relative viability (LU99A; first compound 0.02 µM) of 0.204 and a relative viability (NCI-H2087; first compound 0.0002 µM) of 0.286. For the same compound, the relative viability (NCI-H2087; first compound 0.000632 µM) was 0.227, the relative viability (NCI-H2087; first compound 0.002 µM) was 0.172 and the relative viability (NCI-H2087; first compound 0.006325 µM) was 0.0964. It also gave a relative viability (NCI-H2087; first compound 0.02 µM) of 0.098, a relative viability (LCLC-103H; first compound 0.0002 µM) of 0.712 and a relative viability (LCLC-103H; first compound 0.000632 µM) of 0.796. It also gave a relative viability (LCLC-103H; first compound 0.002 µM) of 0.761, a relative viability (LCLC-103H; first compound 0.006325 µM) of 0.713 and a relative viability (LCLC-103H; first compound 0.02 µM) of 0.524. It also gave a relative viability (NCI-H1944; first compound 0.0002 µM) of 0.45, a relative viability (NCI-H1944; first compound 0.000632 µM) of 0.461 and a relative viability (NCI-H1944; first compound 0.002 µM) of 0.406. It also gave a relative viability (NCI-H1944; first compound 0.006325 µM) of 0.291, a relative viability (NCI-H1944; first compound 0.02 µM) of 0.139 and a relative viability (SK-MES-1; first compound 0.0002 µM) of 0.375. For the same compound, the relative viability (SK-MES-1; first compound 0.000632 µM) was 0.381, the relative viability (SK-MES-1; first compound 0.002 µM) was 0.347 and the relative viability (SK-MES-1; first compound 0.02 µM) was 0.164. The relative viability (HCC-44; first compound 0.0002 µM) was 0.96, the relative viability (HCC-44; first compound 0.000632 µM) was 0.97 and the relative viability (HCC-44; first compound 0.002 µM) was 0.853. For the same compound, the relative viability (HCC-44; first compound 0.006325 µM) was 0.472, the relative viability (HCC-44; first compound 0.02 µM) was 0.566 and the relative viability (NCI-H2405; first compound 0.0002 µM) was 0.724. For the same compound, the relative viability (NCI-H2405; first compound 0.000632 µM) was 0.75, the relative viability (NCI-H2405; first compound 0.002 µM) was 0.663 and the relative viability (NCI-H2405; first compound 0.006325 µM) was 0.498. For the same compound, the relative viability (NCI-H2405; first compound 0.02 µM) was 0.341, the relative viability (EMC-BAC-2; first compound 0.0002 µM) was 0.947 and the relative viability (EMC-BAC-2; first compound 0.000632 µM) was 0.811. It also gave a relative viability (EMC-BAC-2; first compound 0.002 µM) of 0.461, a relative viability (EMC-BAC-2; first compound 0.006325 µM) of 0.46 and a relative viability (EMC-BAC-2; first compound 0.02 µM) of 0.299. The relative viability (NCI-H838; first compound 0.0002 µM) was 0.446, the relative viability (NCI-H838; first compound 0.000632 µM) was 0.496 and the relative viability (NCI-H838; first compound 0.002 µM) was 0.276. The relative viability (NCI-H838; first compound 0.006325 µM) was 0.181, the relative viability (NCI-H838; first compound 0.02 µM) was 0.159 and the relative viability (ChaGo-K-1; first compound 0.0002 µM) was 0.461. For the same compound, the relative viability (ChaGo-K-1; first compound 0.000632 µM) was 0.548, the relative viability (ChaGo-K-1; first compound 0.002 µM) was 0.381 and the relative viability (ChaGo-K-1; first compound 0.006325 µM) was 0.276. The relative viability (ChaGo-K-1; first compound 0.02 µM) was 0.21, the relative viability (NCI-H520; first compound 0.0002 µM) was 0.454 and the relative viability (NCI-H520; first compound 0.000632 µM) was 0.465. For the same compound, the relative viability (NCI-H520; first compound 0.002 µM) was 0.333, the relative viability (NCI-H520; first compound 0.006325 µM) was 0.249 and the relative viability (COR-L23; first compound 0.0002 µM) was 0.39. It also gave a relative viability (COR-L23; first compound 0.000632 µM) of 0.443, a relative viability (COR-L23; first compound 0.002 µM) of 0.291 and a relative viability (COR-L23; first compound 0.02 µM) of 0.121. For the same compound, the relative viability (HCC-827; first compound 0.0002 µM) was 0.2, the relative viability (HCC-827; first compound 0.000632 µM) was 0.343 and the relative viability (HCC-827; first compound 0.002 µM) was 0.279. For the same compound, the relative viability (HCC-827; first compound 0.006325 µM) was 0.251 and the relative viability (HCC-827; first compound 0.02 µM) was 0.236.
